Results on one molecule are retold here after US9884863B2, “STAT3 inhibitor” (Board of Regents, The University of Texas System, priority 2013, dated 2018).

The test system of data set [1] is MDA-MB-231 xenograft tumors. As to the kind of experiment: MDA-MB-231 xenograft tumor growth in nude mice. The settings on record: oral gavage daily for 14 days. The format is in vivo.
Data set [2] relates to MDA-MB-231 cells. Briefly: Apoptosis assay (annexin V, flow cytometry). The format is cell-based, human. The settings on record: dose-dependent; Example 3 numbering. On the procedure:
Cell Cycle Assay and Apoptosis Assay: Cell cycle and apoptosis kits (#MCH100106 and #MCH100105, Millipore, Mass.) were used. […] 24 and 48 h after drug treatment, both adherent and floating cells were collected, washed once with PBS and fixed in cold ethanol for at least 4 h before cell cycle analysis. The fixed cells were then washed twice with PBS and resuspended in 200 μL cell cycle detection reagent, incubated for 30 minutes in dark at room temperature. Cell cycle distribution was measured by the Muse Cell Analyzer with Muse™ Cell Cycle. Similarly, MDA-MB-231 cells with the same treatments were prepared for apoptosis assay. After washing with PBS, resuspended cells were incubated with 100 μL PBS containing 1% BSA and 100 μL Annexin V and dead cell detection reagent in dark for 20 minutes at room temperature. Apoptosis was measured immediately using the Muse Cell Analyzer with the Muse™ Apoptosis Program.

Data set [3] has as its system MDA-MB-231. As to the kind of experiment: MTS cell proliferation assay, MDA-MB-231. The format is cell-based, human. The note with it: Homo sapiens, MDA-MB-231, 72 h, read-out: IC50 MDA-MB-231 (Table 4). In a few lines: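 Cells are exposed to DMSO or STAT3 inhibitors at 0.01-100 μM for 72 h, or at 1, 5 and 10 μM. Proliferation is read by MTS absorbance at 550 or 560 nm after 1 h at 37 °C. Each concentration is run in quadruplicate wells.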
(In general: Tetrazolium assays rely on reduction of a dye to a coloured formazan, in cell work by metabolically active cells.)

For data set [4], the system named is Panc-1. Briefly: MTS cell proliferation assay, Panc-1. It counts as cell-based, human. The note with it: Homo sapiens, PANC-1, 72 h, read-out: IC50 Panc-1 (Table 4). In outline:
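Cells seeded at 2×10^3 cells/well and exposed 72 h to DMSO or 0.01–100 μM STAT3 inhibitor, quadruplicate wells per concentration. Proliferation read by MTS reduction, OD 550 nm after 1 h at 37 °C.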

Data set [5] is classed as in vivo. The settings on record: oral gavage 14 days; HJC0152 25 mg/kg, niclosamide 75 mg/kg.
Experimental: Female nude mice at 4 to 6 wk of age were obtained from MDACC ERO facility. The mice were maintained in a barrier unit with 12 hours light-dark switch room and all materials were autoclaved. Freshly harvested MDA-MB-231 cells (2.5×10^6 cells per mouse, resuspended in 100 μl PBS) were injected into the 3rd mammary fat pad of the mice, and then mice were randomly assigned into control and treatment groups (≧6 mice per group). Treatment started when the xenograft mammary tumors reaches a volume of 200 mm^3. […] Mice were monitored daily for general health conditions (body weight, fur coat condition and posture) and toxicity (hair loss, skin rash, abdominal distension). […] Tumor volume was calculated as V=W^2×L/2, where L=longer diameter (mm) and W=width of short diameter (mm). […]
Female nude mice were obtained from MDACC and were used for orthotopic tumor studies at 4 to 6 weeks of age. […] Body weights and tumors volume were measured daily and tumor volume was calculated according to the formula V=0.5×L×W^2, where L=length (mm) and W=width (mm).
Twenty-two female nude mice (8 wks of age) were obtained from MDACC ERC Center. […] Body weights and tumors volume were measured daily and tumor volume calculated using the formula V=0.5×L×W^2, where L=length (mm) and W=width (mm) of xenograft tumors. Signs of toxicity were recorded individually. […]
For data set [6], the system named is MDA-MB-231 and MDA-MB-468 cells. Briefly: Colony formation assay. The note with it: 15 days, starting at 0.625 μM. It counts as cell-based, human. As to the method:
Colony Formation Assay: MDA-MB-468 and MDA-MB-231 cells were seeded in 6-well plates with a density of 800-3000 cells/well, respectively. […] The culture media with the compounds were changed every 72 h. After two weeks, the wells were washed twice with PBS buffer and 2 mL of 0.01% crystal violet staining buffer was added and incubated for 10 min. The wells were then washed with PBS for 5 min for three times, and allowed to dry. Photographs were then taken and the density of the entire culture well area was digitally measured using the GelCount™ instrument (Oxford Optronix, UK). Experiments were performed in triplicate and the density data were analyzed with one-way ANOVA using GraphPad Prizm 6 software. Error bars represent standard deviation.

pIC50: −log10 of the molar value.

Regarding `O=C(Nc1ccc([N+](=O)[O-])cc1Cl)c1cc(Cl)ccc1O` [niclosamide, reference compound], the “reduction in tumor growth, 75 mg/kg” value in data set [1] worked out at 55%. The “apoptosis, annexin V (Example 3)” value in data set [2] was “activated apoptosis”. In addition, the negative logarithm of the IC50 (pIC50) (as a rule, the negative decadic logarithm of the IC50, by convention in mol/L) was 6.10 in data set [3] and 5.76 in data set [4]. The “toxicity signs in treated mice” value in data set [5] is recorded as “No toxicity signs”. Further, the colony formation result in data set [6] is given as “significant suppression of colony formation”.
